Measured values taken from patent US20220235065A1 (Epizyme, Inc., priority 2016, published 2022).
Where a name gives a salt, the structure may show the parent alone.

Key:
[1] = system: H3K9me2 in MDA-MB-231 cells; experiment: MDA-MB-231 H3K9me2 in-cell western assay; format: cell-based; details: Homo sapiens, read-out: EHMT2 ICW (IC50 μM)
Method in brief: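 MDA-MB-231 cells (3,000/well) exposed to compound for two consecutive 48 h periods at 37 °C, then fixed and stained for H3K9me2, with DRAQ5 as DNA stain and infrared read at 700/800 nm. Percent inhibition was set between DMSO and UNC0638 control wells. IC50 came from triplicate dose–response fits with a four-parameter model, top 100%, bottom 0%.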

[2] = target: T1, EHMT1 (Homo sapiens, UniProt Q9H9B1); experiment: EHMT1 PEP (EHMT1 peptide enzyme assay); format: biochemical; details: peptide substrate enzyme assay
T1 sequence (Q9H9B1 1-1298): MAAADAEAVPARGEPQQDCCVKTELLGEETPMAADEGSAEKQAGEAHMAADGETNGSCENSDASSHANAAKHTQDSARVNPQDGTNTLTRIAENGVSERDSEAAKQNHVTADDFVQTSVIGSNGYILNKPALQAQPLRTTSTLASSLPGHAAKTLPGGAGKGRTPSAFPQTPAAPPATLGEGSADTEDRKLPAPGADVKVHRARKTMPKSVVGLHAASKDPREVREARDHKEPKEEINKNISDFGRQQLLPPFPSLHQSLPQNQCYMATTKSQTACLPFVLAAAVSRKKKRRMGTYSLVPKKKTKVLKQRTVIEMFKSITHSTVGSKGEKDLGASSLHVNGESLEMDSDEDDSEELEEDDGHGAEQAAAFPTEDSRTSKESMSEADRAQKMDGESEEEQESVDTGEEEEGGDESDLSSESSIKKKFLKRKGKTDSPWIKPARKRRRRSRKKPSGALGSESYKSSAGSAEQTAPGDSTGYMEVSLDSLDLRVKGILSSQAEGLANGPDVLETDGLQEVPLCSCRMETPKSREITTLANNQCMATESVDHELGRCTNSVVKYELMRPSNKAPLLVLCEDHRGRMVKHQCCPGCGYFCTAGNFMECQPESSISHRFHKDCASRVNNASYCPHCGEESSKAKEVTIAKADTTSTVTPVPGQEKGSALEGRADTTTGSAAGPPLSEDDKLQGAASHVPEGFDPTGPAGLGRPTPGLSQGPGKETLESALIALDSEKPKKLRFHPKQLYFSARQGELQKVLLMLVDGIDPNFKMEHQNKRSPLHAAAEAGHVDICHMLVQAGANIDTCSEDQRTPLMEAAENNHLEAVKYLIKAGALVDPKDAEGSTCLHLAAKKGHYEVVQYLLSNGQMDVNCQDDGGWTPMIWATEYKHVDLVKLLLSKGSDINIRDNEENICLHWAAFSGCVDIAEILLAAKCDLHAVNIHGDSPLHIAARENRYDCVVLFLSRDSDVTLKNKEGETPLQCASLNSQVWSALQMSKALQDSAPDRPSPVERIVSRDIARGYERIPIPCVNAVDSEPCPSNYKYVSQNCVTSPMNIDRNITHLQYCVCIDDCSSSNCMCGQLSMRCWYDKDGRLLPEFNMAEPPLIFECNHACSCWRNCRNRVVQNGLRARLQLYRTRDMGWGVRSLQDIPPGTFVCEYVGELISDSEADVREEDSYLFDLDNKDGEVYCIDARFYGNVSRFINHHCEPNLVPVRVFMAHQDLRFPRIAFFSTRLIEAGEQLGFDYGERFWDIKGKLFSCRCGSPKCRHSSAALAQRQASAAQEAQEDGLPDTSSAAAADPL

Row | IC50 [1] [µM] | IC50 [2] [µM] | Compound
1 | 1 to 10 | 0.1 to 1 | CNc1cc(C)nc(Nc2ccc(OC)c(-c3cc(C4CC4)on3)c2)n1 [Compound 13]
2 | 1 to 10 | 0.1 to 1 | CNc1cc(C)nc(Nc2ccc(OC)c(-n3cc(C4CC4)cn3)c2)n1 [Compound 14, 2-N-[3-(4-cyclopropyl-1H-pyrazol-1-yl)-4-methoxyphenyl]-4-N,6-dimethylpyrimidine-2,4-diamine]
3 | > 10 | > 10 | CNc1cc(C)nc(Nc2ccc(OC)c(-n3cccn3)c2)n1 [Compound 15, 2-N-[4-methoxy-3-(1H-pyrazol-1-yl)phenyl]-4-N,6-dimethylpyrimidine-2,4-diamine; trifluoroacetic acid]
4 | 1 to 10 | 1 to 10 | CNc1cc(C)nc(Nc2cnc(OC)c(-n3ncc4c3CCNC4)c2)n1 [Compound 19]
5 | > 10 | > 10 | CNc1cc(C)nc(Nc2ccc(OC)c(-c3nnc4n3CCNC4)c2)n1 [Compound 21]
6 | > 10 | 1 to 10 | CNc1cc(C)nc(Nc2ccc(OC)c(-n3cc4c(n3)CNCC4)c2)n1 [Compound 22, 2-N-(4-methoxy-3-[2H,4H,5H,6H,7H-pyrazolo[3,4-c]pyridin-2-yl]phenyl)-4-N,6-dimethylpyrimidine-2,4-diamine hydrochloride]
7 | 1 to 10 | < 0.1 | CNc1cc(C)nc(Nc2ccc(OC)c(-n3cc(CN)cn3)c2)n1 [Compound 23, 2-N-[3-[4-(aminomethyl)-1H-pyrazol-1-yl]-4-methoxyphenyl]-4-N,6-dimethylpyrimidine-2,4-diamine; trifluoroacetic acid]
8 | > 10 | 1 to 10 | CNc1cc(C)nc(Nc2ccc(OC)c(-n3nccc3CN)c2)n1 [Compound 24]
9 | > 10 | 1 to 10 | CNc1cc(C)nc(Nc2ccc(OC)c(-n3ncc4c3CCCC4)c2)n1 [Compound 26, 2-N-[4-methoxy-3-(4,5,6,7-tetrahydro-1H-indazol-1-yl)phenyl]-4-N,6-dimethylpyrimidine-2,4-diamine trifluoroacetic acid]
10 | 1 to 10 | 0.1 to 1 | CNc1nc(Nc2ccc(OC)c(-n3cc4c(n3)CCNC4)c2)nc(C)c1F [Compound 27, 5-fluoro-2-N-(4-methoxy-3-[2H,4H,5H,6H,7H-pyrazolo[4,3-c]pyridin-2-yl]phenyl)-4-N,6-dimethylpyrimidine-2,4-diamine trifluoroacetic acid]
11 | 1 to 10 | 1 to 10 | CNc1nc(Nc2ccc(OC)c(-n3ncc4c3CCNC4)c2)nc(C)c1F [Compound 28, 5-fluoro-2-N-(4-methoxy-3-[1H,4H,5H,6H,7H-pyrazolo[4,3-c]pyridin-1-yl]phenyl)-4-N,6-dimethylpyrimidine-2,4-diamine trifluoroacetic acid]
12 | > 10 | > 10 | CNc1cc(C)nc(Nc2ccc(OC)c(-c3c(C)nc4n3CCNC4)c2)n1 [Compound 30]
13 | > 10 | > 10 | CNc1cc(C)nc(Nc2ccc(OC)c(-c3nnc4n3CCN(C)C4)c2)n1 [Compound 31]
14 | > 10 | > 10 | CNc1cc(C)nc(Nc2ccc(OC)c(-n3ncc4c3CCCN4)c2)n1 [Compound 32]
15 | > 10 | > 10 | CNc1cc(C)nc(Nc2ccc(OC)c(-c3cccc4[nH]ccc34)c2)n1 [Compound 33, 2-N-[3-(1H-indol-4-yl)-4-methoxyphenyl]-4-N,6-dimethylpyrimidine-2,4-diamine hydrochloride]
16 | 1 to 10 | 1 to 10 | CNc1cc(C)nc(Nc2ccc(OC)c(-n3ncc4cnccc43)c2)n1 [Compound 35, 2-N-(4-methoxy-3-[1H-pyrazolo[4,3-c]pyridin-1-yl]phenyl)-4-N,6-dimethylpyrimidine-2,4-diamine; trifluoroacetic acid]
17 | > 10 | 1 to 10 | CNc1cc(C)nc(Nc2ccc(OC)c(-n3ncc4ccncc43)c2)n1 [Compound 36]
18 | > 10 | > 10 | CNc1cc(C)nc(Nc2ccc(OC)c(-c3cccc4[nH]ncc34)c2)n1 [Compound 37, 2-N-[3-(1H-indazol-4-yl)-4-methoxyphenyl]-4-N,6-dimethylpyrimidine-2,4-diamine; trifluoroacetic acid]
19 | > 10 | 1 to 10 | CNc1cc(C)nc(Nc2ccc(OC)c(-c3nc4cnccn4n3)c2)n1 [Compound 38]
20 | > 10 | > 10 | CNc1cc(C)nc(Nc2ccc(OC)c(-c3c(C)nc4cnccn34)c2)n1 [Compound 39]
21 | > 10 | > 10 | CCc1ccc(Nc2nc(C)cc(NC)n2)cc1C(=O)Nc1cccnc1 [Compound 244]
22 | > 10 | > 10 | CNc1cc(C)nc(Nc2ccc(Cl)c(C(=O)Nc3ccnnc3)c2)n1 [Compound 245]

Row | IC50 [1] [µM] | IC50 [2] [µM] | Compound
23 | 1 to 10 | 0.1 to 1 | CNc1cc(C)nc(Nc2ccc(Cl)c(C(=O)Nc3nccs3)c2)n1 [Compound 246]
24 | > 10 | 1 to 10 | Cc1cc(NC2CCNCC2)ncc1-c1cc2[nH]ccc2cn1 [Compound 247]
25 | 1 to 10 | 0.1 to 1 | CNc1cc(C)nc(Nc2ccc(Cl)c(C(=O)Nc3cnccn3)c2)n1 [Compound 251]
26 | 0.1 to 1 | < 0.1 | CNc1cc(C)nc(Nc2ccc(Cl)c(-c3cc4[nH]ccc4cn3)c2)n1 [Compound 255]
27 | 0.1 to 1 | < 0.1 | CNc1cc(C)nc(Nc2ccc(C)c(-c3cc4[nH]ccc4cn3)c2)n1 [Compound 256]
28 | 1 to 10 | 0.1 to 1 | CNc1nc2cc(-c3cc4[nH]ccc4cn3)c(C)cc2n1C [Compound 257]
29 | 1 to 10 | 0.1 to 1 | CNc1cc(C)nc(Nc2ccc(Cl)c(C(=O)Nc3ncccn3)c2)n1 [Compound 258]
30 | > 10 | 1 to 10 | CNc1cc(C)nc(Nc2ccc(Cl)c(C(=O)Nc3ccncn3)c2)n1 [Compound 259]
31 | > 10 | 0.1 to 1 | CNc1cc(C)nc(Nc2ccc(Cl)c(-c3cc4c(cn3)CC(=O)N4)c2)n1 [Compound 260]
32 | < 0.1 | < 0.1 | CNCc1cnn(-c2cc(Nc3nc(C)cc(NC)n3)ccc2Cl)c1 [Compound 262, N2-(4-chloro-3-(4-((methylamino)methyl)-1H-pyrazol-1-yl)phenyl)-N4,6-dimethylpyrimidine-2,4-diamine]
33 | 0.1 to 1 | < 0.1 | CCc1ccc(Nc2nc(C)cc(NC)n2)cc1-c1cc2ccncc2[nH]1 [Compound 269]
34 | > 10 | 1 to 10 | CNc1cc(C)nc(Nc2ccc(C)c(-c3[nH]c4cnccc4c3C#N)c2)n1 [Compound 271]
35 | > 10 | 1 to 10 | CNc1cc(C)nc(Nc2ccc(C)c(-c3cc4ccccc4[nH]3)c2)n1 [Compound 274]
36 | 1 to 10 | 1 to 10 | CCNc1c[nH]c(=O)c(-c2cc(Nc3nc(C)cc(NC)n3)ccc2C)c1 [Compound 276]
37 | 0.1 to 1 | < 0.1 | CNc1nc2cc(-c3cc4ccncc4[nH]3)c(C)cc2n1C [Compound 278]
38 | 1 to 10 | < 0.1 | CNc1cc(C)nc(Nc2ccc(C)c(-c3nc4ccncc4[nH]3)c2)n1 [Compound 279]
39 | > 10 | 1 to 10 | CNc1cc(C)nc(Nc2ccc(C)c(C(=O)Nc3cscn3)c2)n1 [Compound 280]
40 | < 0.1 | < 0.1 | CNc1cc(C)nc(Nc2ccc(C)c(-n3cc4cnccc4n3)c2)n1 [Compound 282]
41 | < 0.1 | < 0.1 | CNCc1cnn(-c2cc(Nc3nc(C)cc(NC)n3)ccc2OC)c1 [Compound 285]
42 | < 0.1 | < 0.1 | CNCc1cnn(-c2cc(Nc3nc(C)cc(NC)n3)ccc2C)c1 [Compound 286, N4,6-dimethyl-N2-(4-methyl-3-(4-((methylamino)methyl)-1H-pyrazol-1-yl)phenyl)pyrimidine-2,4-diamine]
43 | 1 to 10 | 0.1 to 1 | CNc1cc(C)nc(Nc2ccc(C)c(C(=O)Nc3cnccn3)c2)n1 [Compound 287]
